Our source for the EC50 values is ChEMBL document CHEMBL1153952, “Selective, potent PPARgamma agonists with cyclopentenone core structure” (Bioorg Med Chem Lett, 2009).

As usually defined, the EC50 is the midpoint of the concentration-response curve.

Structures are written as SMILES. Where only a bound is given, the exact number is not on record here.

The target of test [1] is T1, Peroxisome proliferator-activated receptor delta (Homo sapiens, UniProt Q03181).
T1 sequence (Q03181 whole entry): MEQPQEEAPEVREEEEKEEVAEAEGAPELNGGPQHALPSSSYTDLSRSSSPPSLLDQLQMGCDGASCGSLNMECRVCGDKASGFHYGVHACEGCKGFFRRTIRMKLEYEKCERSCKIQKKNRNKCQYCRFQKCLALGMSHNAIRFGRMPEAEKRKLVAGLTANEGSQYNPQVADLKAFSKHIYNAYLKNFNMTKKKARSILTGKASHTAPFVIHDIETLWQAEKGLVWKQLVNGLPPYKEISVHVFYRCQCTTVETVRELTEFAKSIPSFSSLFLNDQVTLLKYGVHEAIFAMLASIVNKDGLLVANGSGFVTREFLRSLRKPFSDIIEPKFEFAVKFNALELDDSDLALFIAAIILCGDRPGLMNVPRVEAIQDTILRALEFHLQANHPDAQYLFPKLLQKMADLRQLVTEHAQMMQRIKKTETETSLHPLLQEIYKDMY

In test [2] the target is T2, Peroxisome proliferator-activated receptor alpha (Homo sapiens, UniProt Q07869).
T2 sequence (Q07869 whole entry): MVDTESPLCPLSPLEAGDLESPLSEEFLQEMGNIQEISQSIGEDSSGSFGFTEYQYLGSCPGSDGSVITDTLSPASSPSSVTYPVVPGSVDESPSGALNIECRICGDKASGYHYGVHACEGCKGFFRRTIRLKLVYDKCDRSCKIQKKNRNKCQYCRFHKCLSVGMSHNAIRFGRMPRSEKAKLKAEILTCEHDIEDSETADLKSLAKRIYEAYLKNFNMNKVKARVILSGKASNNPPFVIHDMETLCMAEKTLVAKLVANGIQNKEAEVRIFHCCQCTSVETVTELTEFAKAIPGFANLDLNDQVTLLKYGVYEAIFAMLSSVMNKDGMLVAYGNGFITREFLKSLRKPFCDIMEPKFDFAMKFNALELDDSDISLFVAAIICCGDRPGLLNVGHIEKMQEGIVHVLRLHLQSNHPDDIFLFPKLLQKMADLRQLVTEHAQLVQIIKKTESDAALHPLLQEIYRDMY
The experiment in a line: Agonist activity at PPARalpha ligand binding domain expressed in human HeLa cells co-transfected with Gal4-DBD assessed as transcriptional activation by Gal4 response element-driven luciferase reporter gene assay. Format: cell-based. In general terms: In a reporter assay the amount or activity of a reporter protein is the signal.

The target of test [3] is T3, Peroxisome proliferator-activated receptor gamma (Homo sapiens, UniProt P37231).
T3 sequence (P37231 whole entry): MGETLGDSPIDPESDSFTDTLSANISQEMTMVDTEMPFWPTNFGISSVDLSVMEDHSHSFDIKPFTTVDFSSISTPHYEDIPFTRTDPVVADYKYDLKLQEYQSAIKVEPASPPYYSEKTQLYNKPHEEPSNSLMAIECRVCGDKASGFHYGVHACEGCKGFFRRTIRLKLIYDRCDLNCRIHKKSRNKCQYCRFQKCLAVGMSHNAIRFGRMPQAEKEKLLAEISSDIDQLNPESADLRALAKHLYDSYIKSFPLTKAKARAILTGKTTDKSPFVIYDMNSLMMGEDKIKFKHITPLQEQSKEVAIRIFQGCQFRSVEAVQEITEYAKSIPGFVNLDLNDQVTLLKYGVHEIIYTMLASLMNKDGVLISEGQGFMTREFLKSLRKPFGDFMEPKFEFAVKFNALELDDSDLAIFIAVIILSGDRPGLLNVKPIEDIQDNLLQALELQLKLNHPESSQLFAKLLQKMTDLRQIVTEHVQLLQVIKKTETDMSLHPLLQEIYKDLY
Format: cell-based, HeLa.

Regarding `CCCCCCCN(CCc1ccc(SC(C)(C)C(=O)O)cc1)C(=O)Nc1ccc(F)cc1F` [GSK-9578], in test [1], it took 1000 nM to reach a half-maximal effect (EC50).

Turning to `CCCCCCC[C@H]1C(=O)C=C[C@@H]1OCCCCCC(=O)O`, the EC50 in test [2] is 1000 nM; in test [3], 4000 nM; in test [1] it was above 10000 nM.

Consider `CCCCCCC[C@H]1C(=O)C=C(I)[C@H]1OCCCCCC(=O)O` (relative stereo), for which the concentration for a half-maximal effect (EC50) in test [2] was above 10000 nM; in test [3], 60 nM; in test [1], above 10000 nM.

Take `CCCCCCC#CC1=CC(=O)[C@H](CCCCCCC)[C@@H]1OCCCCCC(=O)O` (relative stereo): the EC50 is 500 nM in test [2], 4000 nM in test [3] and above 10000 nM in test [1].

Consider `CCCCCCC[C@H]1C(=O)C=C[C@H]1OCCCCCC(=O)O`, for which the EC50 in test [3] and in test [1] was 2000 nM throughout.

With `CCCCCCC#CC1=CC(=O)[C@H](CCCCCCC)[C@H]1OCCCCCC(=O)O` (relative stereo), the EC50 came out at 500 nM in test [2], 8000 nM in test [3] and 2000 nM in test [1].

`CCCCCCC[C@H]1C(=O)C=C(I)[C@@H]1OCCCCCC(=O)O` (relative stereo): the results for the EC50 in test [2], in test [3] and in test [1] were 1000 nM, 30 nM and 500 nM, respectively.
